Assays:
Assay type in all cases: cell-based
[1] = system: Escherichia coli (W3110, k 12 mutant); test: Growth on agar/gentamicin plate (resistance check); conditions: 50 μg per ml
Experimental: (§1) Each of the bacterium where grown on a nutrient agar plate and an agar/gentamicin plate at a concentration of 50 μg per ml. This ensured the bacterial strains used where not resistant to gentamicin. One colony from the bacteria agar plate was used to inoculate a sterilized L-broth of 1% tryptone, 0.5% yeast extract, 0.5% NaCl, 0.2% glucose and left over night in a shaking incubator at 37° C.

Staphylococcus aureus = test: Growth on agar/gentamicin plate (resistance check); conditions: 50 μg per ml
Experimental: as §1

[2] = system: coagulase negative Staphylococcus epidermis; test: Growth on agar/gentamicin plate (resistance check); conditions: 50 μg per ml
Experimental: as §1

bacteria = test: Viable count on high temperature (80° C.) dried coating; conditions: coat dried at 80° C.
Experimental: The substrate was a standard glass microscope slide sterilized in an autoclave. Three different coatings were tested i) a pure sol-gel coating was used for a control, ii) a 5 mg/ml gentamicin solution mixed with sol-gel to form a 50 μg/ml coating (50 ppm) and a iii) 12.5 mg/ml concentration of gentamicin was made from gentamicin sulphate dissolved directly in the sol-gel to provide a 1.25% gentamicin sol-gel coating. Each coating was applied over the microscope slide using 200 μl of coating per plate, covered in one single coat and left for 24 hrs at room temperature to allow the coat to cure. Four plates were dried at 80° C. for 1 hr achieving a harder coat to determine if the gentamicin coat was still active after high temperature treatment.
To infect the plates with bacteria, a “sloppy agar” was made up from 0.7 g of nutrient agar dissolved in 100 ml of Phosphate buffer saline (PBS) and autoclaved forming a jelly like consistency. After melting, 5 ml of a inoculate L-broth was pipetted in to 100 ml of sloppy agar and mixed with 500 μl of this inoculated agar to be pipetted on to a coated plate forming a drop sitting on top of the coat. The plate was then laid flat into a Petri dish which was then placed in to a sealed, airtight, container with damp tissue paper to keep the sloppy agar in a moist environment to prevent drying out. […]

In the case of gentamicin, the susceptibility to gentamicin [1] is reported as “susceptible”, the susceptibility to gentamicin (Staphylococcus aureus) is reported as “susceptible” and the susceptibility to gentamicin [2] is reported as “susceptible”. For the same substance, the “gentamicin activity and release after high temperature drying of the coat” value (bacteria) was “still active and released”.

Source: patent US20110311591A1, “Antimicrobial Coating” (SHEFFIELD HALLAM UNIVERSITY, priority 2008, published 2011)
